Values of other authors, collected in patent US20130197188A1 (priority 2010, published 2013).

Legend:
[1] = test system: patients with chronic congestive heart failure; conditions: 15 ng/kg/min, 10-hour infusion; loss of action during infusion
[2] = test system: patients with moderate asthma affliction; conditions: brief infusion; healthy and diseased subjects
[3] = test system: patients with acute decompensated heart failure (ADHF)

What does the source list for urodilatin?
central venous pressure (CVP) [1]: increases slightly already after 5 hours of infusion; urine flow [1]: loss of action after 8 hours of infusion; effect on bronchoconstriction [2]: biologically relevant effectiveness; changes of the baseline in pulmonary capillary wedge pressure (PCWP) ([3]; 15+30 ng/kg/min, compared with the placebo group, FIG. 4A): significant reductions; changes of the cardiac index (CI) ([3]; 15 and 30 ng/kg/min, FIG. 4C): significant increase; persistence of the effect on PCWP and CI (rebound) ([3]; during infusion, slight increase of PCWP and partial drop of CI): slightly reversed after 6 to 8 hours; symptoms, morbidity and mortality ([3]; for all doses): significantly improved; therapeutic window (dose) ([3]; intermediate dose applied): about 15 ng/kg/min
